According to ChEMBL document CHEMBL4406898, “Dual mode of binding of anti cancer drug epirubicin to G-quadruplex [d-(TTAGGGT)]4 containing human telomeric DNA sequence induces thermal stabilization” (Bioorg Med Chem, 2019):

How the values were obtained:
Tetrahymena thermophila [1] = test: Binding affinity to Tetrahymena thermophila telomeric 7 G-quadruplex DNA assessed as binding constant Kb1 in presence of 10 mM KCl by fluorescence spectroscopy
Tetrahymena thermophila [2] = test: Binding affinity to Tetrahymena thermophila telomeric 7 G-quadruplex DNA assessed as binding constant Kb2 in presence of 10 mM KCl by fluorescence spectroscopy

Kb (Tetrahymena thermophila [1]): 6.3 ×10⁵ /M
Kb (Tetrahymena thermophila [2]): 1.3 ×10⁵ /M
Compound: COc1cccc2c1C(=O)c1c(O)c3c(c(O)c1C2=O)C[C@@](O)(C(C)=O)C[C@@H]3O[C@H]1C[C@H](N)[C@H](O)[C@H](C)O1
